{
  "source": "patent US20100331297A1",
  "about": "“MODULATION OF PROTEIN TRAFFICKING” (FOLDRX PHARMACEUTICALS, INC., priority 2007, published 2010)",
  "tested_on": "ypt1^ts cells",
  "assay": "Rescue of growth of ypt1^ts mutant yeast (OD600)",
  "type": "cell-based",
  "settings": "Saccharomyces cerevisiae, read-out: Ypt1-ts MRC (Minimum Rescue Concentration), ypt1^ts cells, 35° C. and 37° C., OD600; multiple results separated by a comma",
  "in_short": "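Log-phase ypt1^ts cells (N121I/A161V) in SC 2% glucose were diluted to OD600 0.003 and treated with compound at 50 μM-0.05 μM final in 1% DMSO. Cultures were incubated at 35° C. (read at 24 and 40 h) or 37° C. (read at 40 h), with rescue measured as OD600 growth and reported as minimum rescue concentration.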",
  "data": [
    {"compound": "CC(C)(C)n1nc(-c2ccc(Cl)cc2)c2c(N)ncnc21", "note": "[compound 25]", "values": [
      {"measurement": "minimal effective concentration", "value": "< 10", "unit": "µM"}
    ]}
  ]
}
